pEC50: −log10 of the molar value.

The target of the first test is T1, human APJ receptor (Homo sapiens, UniProt P35414).
T1 construct: expressed in transfected cells; host or cells: HEK293
T1 sequence (P35414 1-380): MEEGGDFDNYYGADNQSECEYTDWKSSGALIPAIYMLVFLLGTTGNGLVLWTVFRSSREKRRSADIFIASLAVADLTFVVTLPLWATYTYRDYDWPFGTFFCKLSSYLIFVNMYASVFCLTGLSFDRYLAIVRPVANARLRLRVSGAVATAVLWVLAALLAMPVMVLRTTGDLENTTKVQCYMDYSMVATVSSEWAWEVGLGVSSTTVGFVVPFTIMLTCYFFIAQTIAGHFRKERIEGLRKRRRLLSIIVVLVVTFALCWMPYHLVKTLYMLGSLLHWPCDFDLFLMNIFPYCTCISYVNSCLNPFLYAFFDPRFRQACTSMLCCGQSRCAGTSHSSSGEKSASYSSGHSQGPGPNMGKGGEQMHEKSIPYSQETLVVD
Put plainly: Intracellular cAMP accumulation assay (APJ hcAMP, HTRF). The test is classed as cell-based. To be noted: HEK293 cells stably expressing human APJ receptor; inhibition of forskolin-mediated cAMP production; read-out: APJ cAMP Potency range. The gist of the method: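 Inhibition of forskolin (2 μM)-driven cAMP, with […], measured by HTRF after 30 min room-temperature compound exposure of stably transfected HEK293 cells. cAMP read from a standard curve; variable-slope fit gives EC50, and maximal inhibition is normalised to (Pyr1)apelin-13 as 100%.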
As for `CCc1cccc(CC)c1-n1c(-c2ccn(CC(C)C)n2)nc(=O)c(Cc2ccc(-c3ccc(F)cc3C(N)=O)c(F)c2)c1O` [Example 92, 4′-{[1-(2,6-diethylphenyl)-6-hydroxy-2-[1-(2-methylpropyl)-1H-pyrazol-3-yl]-4-oxo-1,4-dihydropyrimidin-5-yl]methyl}-2′,4-difluoro-[1,1′-biphenyl]-2-carboxamide], the pEC50 is 7.00 to 8.00. The same measure, in the same setting: as for `CCc1cccc(CC)c1-n1c(-c2ccn(C3CC3)n2)nc(=O)c(Cc2ccc(-c3cccn(C)c3=O)c(F)c2)c1O` [Example 93, 2-(1-cyclopropyl-1H-pyrazol-3-yl)-1-(2,6-diethylphenyl)-5-{[3-fluoro-4-(1-methyl-2-oxo-1,2-dihydropyridin-3-yl)phenyl]methyl}-6-hydroxy-1,4-dihydropyrimidin-4-one], the figure is 8.00 to 11.00; as for `CCOCc1nc(=O)c(Cc2ccc(-c3ccc(F)nc3C)cc2)c(O)n1[C@@H](COC)c1cc(F)cc(F)c1` [Example 124, 1-[(1R)-1-(3,5-difluorophenyl)-2-methoxyethyl]-2-(ethoxymethyl)-5-{[4-(6-fluoro-2-methylpyridin-3-yl)phenyl]methyl}-6-hydroxy-1,4-dihydropyrimidin-4-one], 8.00 to 11.00; as for `CCCCc1nc(O)c(Cc2coc(-c3ccc(Cl)cc3)n2)c(=O)n1-c1c(OC)cccc1OC` [Example 11, 2-butyl-5-{[2-(4-chlorophenyl)-1,3-oxazol-4-yl]methyl}-3-(2,6-dimethoxyphenyl)-6-hydroxy-3,4-dihydropyrimidin-4-one], 8.00 to 11.00. The same measure, in the same setting: for `CCCCc1nc(=O)c(Cc2cccc(-c3ccnc(F)c3C)c2)c(O)n1[C@@H](CC)c1cc(F)cc(F)c1` [Example 128, 2-butyl-1-[(1S)-1-(3,5-difluorophenyl)propyl]-5-{[3-(2-fluoro-3-methylpyridin-4-yl)phenyl]methyl}-6-hydroxy-1,4-dihydropyrimidin-4-one] the value was 7.00 to 8.00.

Consider `CCCCc1nc(O)c(Cc2ccc(-c3ccc(Cl)cc3)nc2)c(=O)n1-c1c(OC)cccc1OC` [Example 14, 2-butyl-5-{[6-(4-chlorophenyl)pyridin-3-yl]methyl}-3-(2,6-dimethoxyphenyl)-6-hydroxy-3,4-dihydropyrimidin-4-one], for which the pEC50 was 8.00 to 11.00. Same read-out and setting: for `COc1cccc(OC)c1-n1c(CCC2CC2)nc(O)c(Cc2ccc(-n3cc(Cl)ccc3=O)cc2)c1=O` [Example 57, 5-{[4-(5-chloro-2-oxo-1,2-dihydropyridin-1-yl)phenyl]methyl}-2-(2-cyclopropylethyl)-3-(2,6-dimethoxyphenyl)-6-hydroxy-3,4-dihydropyrimidin-4-one] the value was 8.00 to 11.00; for `CCCCc1nc(O)c(Cc2ccc(Cn3cccn3)cc2)c(=O)n1-c1c(OC)cccc1OC` [Example 27, 2-butyl-3-(2,6-dimethoxyphenyl)-6-hydroxy-5-{[4-(1H-pyrazol-1-ylmethyl)phenyl]methyl}-3,4-dihydropyrimidin-4-one], 8.00 to 11.00; for `CC[C@@H](c1cc(F)cc(F)c1)n1c(-c2ccn(CC)n2)nc(=O)c(Cc2ccc(-c3ccc(F)nc3)cc2)c1O` [Example 135, 1-[(1S)-1-(3,5-difluorophenyl)propyl]-2-(1-ethyl-1H-pyrazol-3-yl)-5-{[4-(6-fluoropyridin-3-yl)phenyl]methyl}-6-hydroxy-1,4-dihydropyrimidin-4-one], 8.00 to 11.00. Same read-out and setting: for `CCCCc1nc(O)c(Cc2ccc(-n3cc(C)ccc3=O)cc2)c(=O)n1-c1c(OC)cccc1OC` [Example 50, 2-butyl-3-(2,6-dimethoxyphenyl)-6-hydroxy-5-{[4-(5-methyl-2-oxo-1,2-dihydropyridin-1-yl)phenyl]methyl}-3,4-dihydropyrimidin-4-one] the value was 8.00 to 11.00; for `CCCCc1nc(=O)c(Cc2ccc(C3CC3)cc2)c(O)n1[C@@H](CC)c1cccc(C#N)c1` [Example 101, 3-[(1S)-1-{2-butyl-5-[(4-cyclopropylphenyl)methyl]-6-hydroxy-4-oxo-1,4-dihydropyrimidin-1-yl}propyl]benzonitrile], 8.00 to 11.00; for `CC[C@@H](c1cc(F)cc(F)c1)n1c(COC(C)C)nc(=O)c(Cc2ccc(-c3ccnc(F)c3C)cc2)c1O` [Example 108, 1-[(1S)-1-(3,5-difluorophenyl)propyl]-5-{[4-(2-fluoro-3-methylpyridin-4-yl)phenyl]methyl}-6-hydroxy-2-[(propan-2-yloxy)methyl]-1,4-dihydropyrimidin-4-one], 8.00 to 11.00. Same read-out and setting: for `CCCCc1nc(=O)c(Cc2ccc(C3CC3)cc2)c(O)n1[C@@H](CC)c1cccc(C#N)c1` [Example 102, 3-[(1S)-1-{2-butyl-5-[(4-cyclopropylphenyl)methyl]-6-hydroxy-4-oxo-1,4-dihydropyrimidin-1-yl}propyl]benzonitrile] the value was 7.00 to 8.00. For `CCCCc1nc(O)c(Cc2cnc(-c3ccc(Cl)cc3)s2)c(=O)n1-c1c(OC)cccc1OC` [Example 26, 2-butyl-5-{[2-(4-chlorophenyl)-1,3-thiazol-5-yl]methyl}-3-(2,6-dimethoxyphenyl)-6-hydroxy-3,4-dihydropyrimidin-4-one], the pEC50 was 8.00 to 11.00. On the same count and under the same terms, for `CCc1cccc(CC)c1-n1c(-c2ccn(C(C)C)n2)nc(=O)c(Cc2ccc(-c3cccn(C)c3=O)c(F)c2)c1O` [Example 87, 1-(2,6-diethylphenyl)-5-{[3-fluoro-4-(1-methyl-2-oxo-1,2-dihydropyridin-3-yl)phenyl]methyl}-6-hydroxy-2-[1-(propan-2-yl)-1H-pyrazol-3-yl]-1,4-dihydropyrimidin-4-one] the value was 8.00 to 11.00; for `COc1cccc(OC)c1-n1c(CCC(C)C)nc(O)c(Cc2ccc(NC(C)=O)cc2)c1=O` [Example 16, N-(4-{[1-(2,6-dimethoxyphenyl)-4-hydroxy-2-(3-methylbutyl)-6-oxo-1,6-dihydropyrimidin-5-yl]methyl}phenyl)acetamide], 7.00 to 8.00; for `CCCCc1nc(O)c(Cc2cnn(Cc3ccccc3)c2)c(=O)n1-c1c(OC)cccc1OC` [Example 30, 5-[(1-benzyl-1H-pyrazol-4-yl)methyl]-2-butyl-3-(2,6-dimethoxyphenyl)-6-hydroxy-3,4-dihydropyrimidin-4-one], 8.00 to 11.00. Same read-out and setting: for `CCCCc1nc(=O)c(Cc2ccc(-c3ccc(F)nc3C)cc2)c(O)n1[C@@H](CC)c1cccc(F)c1` [Example 104, 2-butyl-5-{[4-(6-fluoro-2-methylpyridin-3-yl)phenyl]methyl}-1-[(1S)-1-(3-fluorophenyl)propyl]-6-hydroxy-1,4-dihydropyrimidin-4-one] the value was 8.00 to 11.00.

Still in this test, the particulars now being: HEK293 cells stably expressing human APJ receptor; inhibition of forskolin-mediated cAMP production; read-out: Human APJ cAMP EC50 potency range.
`CCOCc1nc(O)c(Cc2ccc(-n3ccccc3=O)cc2)c(=O)n1-c1c(OC)cccc1OC` [Example 1]: the pEC50 was 6.52 to 7.00.

For the origin of these results see patent publication US11390616B2 (BRISTOL-MYERS SQUIBB COMPANY, priority 2015, dated 2022).
